Key:
[1] = biological target: T1, Muscle, skeletal receptor tyrosine-protein kinase (Homo sapiens) (UniProt O15146); experiment: Inhibition of human recombinant MUSK at 500 nM in presence of ATP by radiometric assay relative to control
T1 sequence (whole entry): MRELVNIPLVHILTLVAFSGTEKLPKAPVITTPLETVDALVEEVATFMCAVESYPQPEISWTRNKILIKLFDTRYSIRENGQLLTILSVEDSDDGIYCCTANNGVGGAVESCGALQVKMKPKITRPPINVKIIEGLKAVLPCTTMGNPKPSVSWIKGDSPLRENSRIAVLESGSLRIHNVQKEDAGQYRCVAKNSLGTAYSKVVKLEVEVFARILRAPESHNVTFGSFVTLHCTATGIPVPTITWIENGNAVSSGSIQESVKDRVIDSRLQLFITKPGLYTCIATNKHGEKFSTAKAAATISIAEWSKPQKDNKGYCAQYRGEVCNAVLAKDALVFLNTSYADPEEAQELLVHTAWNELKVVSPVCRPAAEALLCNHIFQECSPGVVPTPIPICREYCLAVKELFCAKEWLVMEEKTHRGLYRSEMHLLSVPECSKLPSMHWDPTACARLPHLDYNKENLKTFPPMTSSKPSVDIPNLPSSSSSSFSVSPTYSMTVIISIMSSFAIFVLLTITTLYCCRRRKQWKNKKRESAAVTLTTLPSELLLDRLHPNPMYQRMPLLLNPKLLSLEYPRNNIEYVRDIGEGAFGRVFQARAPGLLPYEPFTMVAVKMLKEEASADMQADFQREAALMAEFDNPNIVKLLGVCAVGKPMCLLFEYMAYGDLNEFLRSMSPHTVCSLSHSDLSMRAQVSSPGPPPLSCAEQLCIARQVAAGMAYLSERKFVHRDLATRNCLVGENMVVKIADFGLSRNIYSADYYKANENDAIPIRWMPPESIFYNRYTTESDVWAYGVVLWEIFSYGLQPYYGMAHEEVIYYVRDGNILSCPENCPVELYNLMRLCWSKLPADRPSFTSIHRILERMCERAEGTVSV

[2] = biological target: T2, Beta-adrenergic receptor kinase 1 (Homo sapiens) (UniProt P25098); experiment: Inhibition of human recombinant BARK1 at 500 nM related to control ULK1
T2 sequence (whole entry): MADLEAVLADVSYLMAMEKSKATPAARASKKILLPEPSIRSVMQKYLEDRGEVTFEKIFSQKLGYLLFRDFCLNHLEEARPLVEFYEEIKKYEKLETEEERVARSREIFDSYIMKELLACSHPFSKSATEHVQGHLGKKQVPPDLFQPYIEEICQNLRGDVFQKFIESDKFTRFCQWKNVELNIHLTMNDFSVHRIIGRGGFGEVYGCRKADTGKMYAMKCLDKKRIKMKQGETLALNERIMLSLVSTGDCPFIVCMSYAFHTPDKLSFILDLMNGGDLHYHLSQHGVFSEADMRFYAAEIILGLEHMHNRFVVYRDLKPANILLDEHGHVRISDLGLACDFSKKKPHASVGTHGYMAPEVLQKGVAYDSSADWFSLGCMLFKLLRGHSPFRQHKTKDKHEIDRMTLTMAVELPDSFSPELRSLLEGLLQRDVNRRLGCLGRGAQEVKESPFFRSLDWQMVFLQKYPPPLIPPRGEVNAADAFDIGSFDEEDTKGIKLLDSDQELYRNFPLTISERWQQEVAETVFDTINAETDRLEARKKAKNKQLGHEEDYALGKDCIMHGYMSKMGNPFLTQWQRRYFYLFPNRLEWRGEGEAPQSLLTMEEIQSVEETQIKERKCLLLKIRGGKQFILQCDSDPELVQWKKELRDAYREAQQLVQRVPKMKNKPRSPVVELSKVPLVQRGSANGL

[3] = biological target: Calcium/calmodulin-dependent protein kinase type 1D (Homo sapiens) (UniProt Q8IU85); experiment: Inhibition of human recombinant CaMK1d at 500 nM related to control ULK1
[4] = biological target: Serine/threonine-protein kinase PAK 5 (Homo sapiens) (UniProt Q9P286); experiment: Inhibition of human recombinant PAK5 at 500 nM related to control ULK1
[5] = biological target: Serine/threonine-protein kinase 25 (Homo sapiens) (UniProt O00506); experiment: Inhibition of human recombinant YSK1 at 500 nM in presence of ATP by radiometric assay relative to control
[6] = biological target: T3, Serine/threonine-protein kinase ULK2 (Homo sapiens) (UniProt Q8IYT8); experiment: Inhibition of human recombinant ULK2 at 15 nM related to control ULK1
T3 sequence (whole entry): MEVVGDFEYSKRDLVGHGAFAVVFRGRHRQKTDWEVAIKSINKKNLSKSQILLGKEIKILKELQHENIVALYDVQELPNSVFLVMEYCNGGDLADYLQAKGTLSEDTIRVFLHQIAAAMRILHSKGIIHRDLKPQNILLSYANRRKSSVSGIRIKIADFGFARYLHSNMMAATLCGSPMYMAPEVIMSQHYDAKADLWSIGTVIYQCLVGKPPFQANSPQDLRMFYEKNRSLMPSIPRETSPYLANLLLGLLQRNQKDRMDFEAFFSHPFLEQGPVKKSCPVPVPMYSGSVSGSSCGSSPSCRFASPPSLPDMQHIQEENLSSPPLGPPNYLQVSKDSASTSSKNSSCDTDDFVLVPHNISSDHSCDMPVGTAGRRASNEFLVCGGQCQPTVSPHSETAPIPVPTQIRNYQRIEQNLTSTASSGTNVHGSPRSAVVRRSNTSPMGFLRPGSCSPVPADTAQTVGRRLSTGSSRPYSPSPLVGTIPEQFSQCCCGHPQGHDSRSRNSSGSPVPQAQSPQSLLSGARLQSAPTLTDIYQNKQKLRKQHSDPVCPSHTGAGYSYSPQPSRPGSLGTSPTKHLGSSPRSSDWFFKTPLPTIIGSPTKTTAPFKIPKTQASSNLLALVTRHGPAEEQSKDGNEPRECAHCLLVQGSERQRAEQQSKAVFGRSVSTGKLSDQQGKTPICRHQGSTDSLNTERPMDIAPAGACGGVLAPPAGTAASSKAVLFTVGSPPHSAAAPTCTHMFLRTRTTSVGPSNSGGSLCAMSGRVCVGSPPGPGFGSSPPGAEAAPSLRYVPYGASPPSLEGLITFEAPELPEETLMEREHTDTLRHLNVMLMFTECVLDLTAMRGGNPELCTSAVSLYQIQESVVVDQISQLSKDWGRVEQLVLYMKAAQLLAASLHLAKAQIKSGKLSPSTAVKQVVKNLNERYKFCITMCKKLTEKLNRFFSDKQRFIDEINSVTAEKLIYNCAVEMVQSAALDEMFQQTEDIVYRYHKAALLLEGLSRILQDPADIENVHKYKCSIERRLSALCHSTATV

[7] = biological target: Myosin light chain kinase, smooth muscle (Homo sapiens) (UniProt Q15746); experiment: Inhibition of human recombinant smMLCK at 15 nM in presence of ATP by radiometric assay relative to control
Sequence of Myosin light chain kinase, smooth muscle (Homo sapiens) (Q15746 whole entry): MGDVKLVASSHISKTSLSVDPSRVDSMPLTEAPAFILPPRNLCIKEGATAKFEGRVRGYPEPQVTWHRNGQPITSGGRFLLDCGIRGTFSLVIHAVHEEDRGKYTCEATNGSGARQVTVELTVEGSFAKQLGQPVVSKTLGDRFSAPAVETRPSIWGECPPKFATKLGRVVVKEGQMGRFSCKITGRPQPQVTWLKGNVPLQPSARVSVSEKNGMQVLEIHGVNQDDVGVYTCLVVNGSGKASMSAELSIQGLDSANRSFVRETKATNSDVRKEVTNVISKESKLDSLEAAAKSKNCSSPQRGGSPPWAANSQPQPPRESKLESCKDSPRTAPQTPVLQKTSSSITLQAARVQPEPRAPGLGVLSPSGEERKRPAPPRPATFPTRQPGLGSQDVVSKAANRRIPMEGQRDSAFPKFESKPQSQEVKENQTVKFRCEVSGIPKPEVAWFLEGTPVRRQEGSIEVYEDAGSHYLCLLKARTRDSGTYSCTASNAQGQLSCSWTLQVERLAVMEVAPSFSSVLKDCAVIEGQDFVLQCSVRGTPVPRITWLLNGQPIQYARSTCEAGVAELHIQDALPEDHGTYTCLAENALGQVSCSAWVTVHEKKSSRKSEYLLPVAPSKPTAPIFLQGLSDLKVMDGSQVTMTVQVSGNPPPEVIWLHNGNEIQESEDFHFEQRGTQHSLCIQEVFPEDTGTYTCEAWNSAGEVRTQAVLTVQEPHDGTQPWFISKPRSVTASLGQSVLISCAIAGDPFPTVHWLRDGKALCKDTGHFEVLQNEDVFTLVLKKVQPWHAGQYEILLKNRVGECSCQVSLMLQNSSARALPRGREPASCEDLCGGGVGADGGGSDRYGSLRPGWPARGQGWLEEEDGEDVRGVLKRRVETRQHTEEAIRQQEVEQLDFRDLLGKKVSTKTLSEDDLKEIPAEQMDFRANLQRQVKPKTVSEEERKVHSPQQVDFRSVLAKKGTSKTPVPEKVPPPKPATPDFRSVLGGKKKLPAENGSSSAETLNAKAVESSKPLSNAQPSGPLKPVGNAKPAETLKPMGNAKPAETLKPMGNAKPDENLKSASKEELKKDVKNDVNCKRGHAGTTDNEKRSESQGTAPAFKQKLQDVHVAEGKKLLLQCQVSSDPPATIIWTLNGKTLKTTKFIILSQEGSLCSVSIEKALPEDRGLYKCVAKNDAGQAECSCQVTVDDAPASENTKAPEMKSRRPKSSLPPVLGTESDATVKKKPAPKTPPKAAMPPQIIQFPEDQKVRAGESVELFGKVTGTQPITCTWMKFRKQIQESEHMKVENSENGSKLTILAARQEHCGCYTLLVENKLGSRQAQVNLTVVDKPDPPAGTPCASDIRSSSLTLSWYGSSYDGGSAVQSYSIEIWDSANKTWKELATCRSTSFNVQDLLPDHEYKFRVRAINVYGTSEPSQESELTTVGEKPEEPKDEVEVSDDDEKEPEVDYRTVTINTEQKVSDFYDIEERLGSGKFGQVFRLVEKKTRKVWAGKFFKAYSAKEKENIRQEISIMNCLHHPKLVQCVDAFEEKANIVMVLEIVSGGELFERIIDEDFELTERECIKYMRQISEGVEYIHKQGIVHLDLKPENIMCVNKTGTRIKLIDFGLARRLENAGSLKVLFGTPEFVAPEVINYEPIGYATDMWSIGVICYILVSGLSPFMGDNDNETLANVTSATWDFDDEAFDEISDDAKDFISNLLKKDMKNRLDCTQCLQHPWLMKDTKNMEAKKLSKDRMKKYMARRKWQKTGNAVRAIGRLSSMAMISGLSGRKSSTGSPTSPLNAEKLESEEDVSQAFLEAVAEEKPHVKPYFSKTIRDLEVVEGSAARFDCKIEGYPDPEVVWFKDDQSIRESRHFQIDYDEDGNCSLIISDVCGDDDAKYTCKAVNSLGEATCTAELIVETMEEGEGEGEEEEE

Sequence of Calcium/calmodulin-dependent protein kinase type 1D (Homo sapiens) (Q8IU85 whole entry, looked up): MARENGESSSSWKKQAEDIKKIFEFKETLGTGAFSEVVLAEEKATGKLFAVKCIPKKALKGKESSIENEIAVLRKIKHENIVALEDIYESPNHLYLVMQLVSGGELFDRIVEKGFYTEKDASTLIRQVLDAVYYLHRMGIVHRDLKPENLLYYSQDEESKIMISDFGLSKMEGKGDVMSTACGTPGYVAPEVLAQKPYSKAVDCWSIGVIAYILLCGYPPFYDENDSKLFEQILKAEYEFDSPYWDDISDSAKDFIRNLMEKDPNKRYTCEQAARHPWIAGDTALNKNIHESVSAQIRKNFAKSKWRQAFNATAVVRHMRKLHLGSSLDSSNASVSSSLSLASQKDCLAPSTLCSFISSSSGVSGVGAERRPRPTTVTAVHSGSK
Sequence of Serine/threonine-protein kinase 25 (Homo sapiens) (O00506 whole entry, looked up): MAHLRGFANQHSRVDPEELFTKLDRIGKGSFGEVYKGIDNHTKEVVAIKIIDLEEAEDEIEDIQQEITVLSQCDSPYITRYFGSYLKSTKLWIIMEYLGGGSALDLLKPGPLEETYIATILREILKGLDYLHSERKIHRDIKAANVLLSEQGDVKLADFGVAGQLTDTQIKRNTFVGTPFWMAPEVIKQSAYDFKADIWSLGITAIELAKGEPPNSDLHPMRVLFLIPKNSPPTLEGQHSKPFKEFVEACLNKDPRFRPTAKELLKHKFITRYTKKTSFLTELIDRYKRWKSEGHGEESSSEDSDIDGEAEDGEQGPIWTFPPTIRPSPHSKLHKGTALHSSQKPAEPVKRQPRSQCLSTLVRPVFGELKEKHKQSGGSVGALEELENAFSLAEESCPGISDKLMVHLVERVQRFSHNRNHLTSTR
Sequence of Serine/threonine-protein kinase PAK 5 (Homo sapiens) (Q9P286 whole entry, looked up): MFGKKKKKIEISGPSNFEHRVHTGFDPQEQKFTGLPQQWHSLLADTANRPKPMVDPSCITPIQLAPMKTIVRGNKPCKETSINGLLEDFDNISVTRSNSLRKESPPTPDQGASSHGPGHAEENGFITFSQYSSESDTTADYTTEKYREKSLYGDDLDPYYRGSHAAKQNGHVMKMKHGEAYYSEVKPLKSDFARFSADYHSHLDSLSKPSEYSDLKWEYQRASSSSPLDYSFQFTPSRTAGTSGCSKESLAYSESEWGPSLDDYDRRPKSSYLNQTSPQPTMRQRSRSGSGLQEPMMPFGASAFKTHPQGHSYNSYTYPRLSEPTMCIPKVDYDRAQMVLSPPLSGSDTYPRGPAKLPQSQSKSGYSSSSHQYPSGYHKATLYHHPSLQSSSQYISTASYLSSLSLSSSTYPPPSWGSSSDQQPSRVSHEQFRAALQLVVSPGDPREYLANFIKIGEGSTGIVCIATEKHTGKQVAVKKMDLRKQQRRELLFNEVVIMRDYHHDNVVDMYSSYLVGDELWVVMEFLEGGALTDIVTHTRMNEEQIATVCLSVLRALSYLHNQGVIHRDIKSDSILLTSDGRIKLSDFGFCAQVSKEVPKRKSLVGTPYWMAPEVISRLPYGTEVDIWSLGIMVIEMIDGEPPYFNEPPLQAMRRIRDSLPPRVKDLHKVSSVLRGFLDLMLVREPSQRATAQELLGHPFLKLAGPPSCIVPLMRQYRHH

Row | inhibition [1] [%] | fold change (FC) [2] | fold change (FC) [3] | fold change (FC) [4] | inhibition [5] [%] | fold change (FC) [6] | inhibition [7] [%] | SMILES
1 | 34 | 0.11 | 0.07 | 0.07 | 12 |  |  | CNC(=O)c1ccccc1Oc1nc(Nc2cc(OC)c(OC)c(OC)c2)ncc1Br
2 |  |  |  |  |  | 0.83 | 0 | CC(C)[C@H](NC(=O)c1cc(-c2cnn3cc(-c4ccc(OCCN5CCCCC5)cc4)cnc23)cs1)C(F)(F)F

Reference: ChEMBL document CHEMBL5653631, “A Potent and Selective ULK1 Inhibitor Suppresses Autophagy and Sensitizes Cancer Cells to Nutrient Stress” (iScience, 2018)
